Assay results: US20050137220A1 (Pharmacia Corporation, priority 2003, published 2005)
Where a name gives a salt, the structure may show the parent alone. Read-outs that look alike come from different tables or passages of the source.

What was measured:
[1] = test system: U937 cells; experiment: U937 Cell TNFα Release Assay; type: cell-based, human; conditions: mixture of stereoisomers implied unless otherwise noted
[2] = molecular target: MK-2 (Homo sapiens, UniProt P49137); experiment: Determination of MK-2 IC50 (phosphorylation of HSP-peptide, anion exchange resin capture assay); type: biochemical; conditions: additional values are replicate IC50 experiments; mixture of stereoisomers implied unless otherwise noted; read-out: MK-2 Avg. IC50
[3] = Homo sapiens, U-937, LPS-stimulated differentiated U937 cells, TNFα by ELISA, read-out: TNF Release Assay Avg. IC50
[4] = Homo sapiens, U-937, read-out: TNF Release Assay Avg. IC50, LPS-stimulated differentiated U937 cells, TNFα by ELISA
[5] = Homo sapiens, U-937, 4 h, LPS-stimulated differentiated U937 cells, TNFα by ELISA, read-out: TNF Release Assay Avg. IC50
[6] = Homo sapiens, U-937, 4 h, read-out: TNF Release Assay Avg. IC50, LPS-stimulated differentiated U937 cells, TNFα by ELISA

Chain of MK-2 (P49137 whole entry, species assumed): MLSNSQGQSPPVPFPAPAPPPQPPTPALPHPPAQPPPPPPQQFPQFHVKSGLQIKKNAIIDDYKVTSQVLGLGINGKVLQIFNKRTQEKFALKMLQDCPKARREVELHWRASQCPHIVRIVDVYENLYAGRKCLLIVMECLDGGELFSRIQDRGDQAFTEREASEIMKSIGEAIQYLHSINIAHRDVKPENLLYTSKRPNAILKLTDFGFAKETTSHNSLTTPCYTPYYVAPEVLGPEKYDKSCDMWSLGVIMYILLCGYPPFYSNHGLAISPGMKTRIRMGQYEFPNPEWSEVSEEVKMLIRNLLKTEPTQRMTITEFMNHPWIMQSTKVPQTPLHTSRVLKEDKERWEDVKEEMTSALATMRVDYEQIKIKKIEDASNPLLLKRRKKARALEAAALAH

COc1ccc2[nH]c3c(c2c1)CCC/C3=N\O (single isomer, unassigned) [Example 75, 6-methoxy-2,3,4,9-tetrahydro-1H-carbazol-1-one oxime]
IC50 [1, 3]: 13.9 µM
IC50 [2]: 16.5 µM

COc1ccc2[nH]c3c(c2c1)CC(CCCNCCc1ccccc1)NC3=O (stereo not shown) [Example 18, trifluoroacetate]
IC50 [1, 4]: 23.7 µM
IC50 [2]: 2.03 µM

COc1ccc2[nH]c3c(c2c1)CCC/C3=N\O [Example 19, (1E)-6-methoxy-2,3,4,9-tetrahydro-1H-carbazol-1-one oxime]
IC50 [1, 3]: 1.89 µM
IC50 [2]: 2.1 µM

COc1ccc2[nH]c3c(c2c1)CCC/C3=N/O [Example 25, (1Z)-6-methoxy-2,3,4,9-tetrahydro-1H-carbazol-1-one oxime]
IC50 [1, 3]: 2.18 µM
IC50 [2]: 3.1 µM

COc1ccc2[nH]c3c(c2c1)CC(CCCNCCCc1ccccc1)NC3=O (stereo not drawn) [Example 27, 6-methoxy-3-{3-[(3-phenylpropyl)amino]propyl}-2,3,4,9-tetrahydro-1H-beta-carbolin-1-one trifluoroacetate]
IC50 [1, 3]: 8.54 µM
IC50 [2]: 3.24 µM

COC(=O)c1cccc2c3c([nH]c12)CCNC3=O [Example 29, methyl 1-oxo-2,3,4,5-tetrahydro-1H-pyrido[4,3-b]indole-6-carboxylate]
IC50 [1, 5]: 42.4 µM
IC50 [2]: 3.52 µM

COc1ccc2[nH]c3c(c2c1)CCCNC3=O [Example 30, 7-methoxy-3,4,5,10-tetrahydroazepino[3,4-b]indol-1(2H)-one hydrochloride]
IC50 [1, 5]: 2.66 µM
IC50 [2]: 3.6 µM

COc1ccc2c3c([nH]c2c1)C(C(=O)O)NCC3 (stereo not drawn) [Example 34, 7-methoxy-2,3,4,9-tetrahydro-1H-beta-carboline-1-carboxylic acid]
IC50 [1, 5]: > 100 µM
IC50 [2]: 4.52 µM

COc1ccc2[nH]c3c(c2c1)CC(CCCN)NC3=O (stereo not drawn) [Example 38, 3-(3-aminopropyl)-6-methoxy-2,3,4,9-tetrahydro-1H-beta-carbolin-1-one trifluoroacetate]
IC50 [1, 3]: 36.7 µM
IC50 [2]: 5.5 µM

COc1ccc2[nH]c3c(c2c1)CCCCC3=NO [Example 49]
IC50 [1, 3]: 2.89 µM
IC50 [2]: 6.9 µM

CCOC(=O)COc1ccc2[nH]c3c(c2c1)CCNC3C(=O)O (stereo not drawn) [Example 53, 6-(2-ethoxy-2-oxoethoxy)-2,3,4,9-tetrahydro-1H-beta-carboline-1-carboxylic acid trifluoroacetate hydrate]
IC50 [1, 5]: > 100 µM
IC50 [2]: 8 µM

COc1ccc2[nH]c3c(c2c1)CC(C)(C)NC3C(=O)O (stereo not drawn) [Example 54, 6-methoxy-3,3-dimethyl-2,3,4,9-tetrahydro-1H-beta-carboline-1-carboxylic acid]
IC50 [1, 5]: > 100 µM
IC50 [2]: 8.39 µM

CCCC1CNC(C(=O)O)c2[nH]c3ccc(OC)cc3c21 (stereo not drawn) [Example 55, 6-methoxy-4-propyl-2,3,4,9-tetrahydro-1H-beta-carboline-1-carboxylic acid]
IC50 [1, 6]: > 100 µM
IC50 [2]: 8.47 µM

COC(=O)C(Oc1ccc2[nH]c3c(c2c1)CCNC3C(=O)O)c1ccccc1 (stereo not drawn) [Example 57, 6-(2-methoxy-2-oxo-1-phenylethoxy)-2,3,4,9-tetrahydro-1H-beta-carboline-1-carboxylic acid]
IC50 [1, 5]: 97.3 µM
IC50 [2]: 9.45 µM

CCCCOc1ccc2[nH]c3c(c2c1)CCNC3C(=O)O (stereo not drawn) [Example 60, 6-butoxy-2,3,4,9-tetrahydro-1H-beta-carboline-1-carboxylic acid]
IC50 [1, 5]: > 100 µM
IC50 [2]: 10.1 µM

CCCOC(=O)C1c2[nH]c3ccc(OC)cc3c2C2CCN1C2 (stereo not shown) [Example 61, propyl 7-methoxy-3,4,5,10-tetrahydro-1H-2,5-methanoazepino[3,4-b]indole-1-carboxylate trifluoroacetate]
IC50 ([1]; read-out: TNF Release Assay Avg. IC50, LPS-stimulated differentiated U937 cells, TNFα by ELISA, trifluoroacetate): 0.879 µM

COc1ccc2[nH]c3c(c2c1)CC(CCCNCc1ccccc1)NC3=O (stereo not drawn) [Example 62, 3-[3-(benzylamino)propyl]-6-methoxy-2,3,4,9-tetrahydro-1H-beta-carbolin-1-one trifluoroacetate]
IC50 [1, 3]: 24.9 µM
IC50 [2]: 10.5 µM

O=C(OCc1ccccc1)C1c2[nH]c3ccc(O)cc3c2C2CCN1C2 (stereo not shown) [Example 63, benzyl 7-hydroxy-3,4,5,10-tetrahydro-1H-2,5-methanoazepino[3,4-b]indole-1-carboxylate hydrochloride]
IC50 [1, 3]: 35.9 µM

O=C(O)C1NCCc2c1[nH]c1ccc(OCc3ccccc3)cc21 (stereo not drawn) [Example 64, 6-(benzyloxy)-2,3,4,9-tetrahydro-1H-beta-carboline-1-carboxylic acid hydrochloride]
IC50 [1, 6]: 85.1 µM

COc1ccc2[nH]c3c(c2c1)C(C(F)(F)F)CNC3C(=O)O (stereo not drawn) [Example 66, 6-methoxy-4-(trifluoromethyl)-2,3,4,9-tetrahydro-1H-beta-carboline-1-carboxylic acid]
IC50 [1, 5]: 41.3 µM
IC50 [2]: 13.8 µM

COc1ccc2[nH]c3c(c2c1)CCN[C@@H]3C(=O)O [Example 67, (1S)-6-methoxy-2,3,4,9-tetrahydro-1H-beta-carboline-1-carboxylic acid]
IC50 [1, 6]: > 100 µM

COc1ccc2[nH]c3c(c2c1)CCNC3=O [Example 69, 6-methoxy-2,3,4,9-tetrahydro-1H-beta-carbolin-1-one]
IC50 [1, 3]: 45.7 µM
IC50 [2]: 15 µM

COC(=O)COc1ccc2[nH]c3c(c2c1)CCNC3C(=O)O (stereo not drawn) [Example 70, 6-(2-methoxy-2-oxoethoxy)-2,3,4,9-tetrahydro-1H-beta-carboline-1-carboxylic acid trifluoroacetate hydrate]
IC50 [1, 5]: > 100 µM
IC50 [2]: 15.3 µM

COc1ccc2[nH]c3c(c2c1)C(Cc1ccccc1)CNC3C(=O)O (stereo not drawn) [Example 71, 4-benzyl-6-methoxy-2,3,4,9-tetrahydro-1H-beta-carboline-1-carboxylic acid]
IC50 [1, 6]: 54 µM

COc1ccc2[nH]c3c(c2c1)C1CCN(C1)C3C(=O)OCC(C)(C)C (stereo not shown) [Example 84, hydrochloride]
IC50 [1, 4]: 41 µM

NC(=O)c1ccc2[nH]c3c(c2c1)CCNC3C(=O)O (stereo not drawn) [Example 88, 6-(aminocarbonyl)-2,3,4,9-tetrahydro-1H-beta-carboline-1-carboxylic acid trifluoroacetate hydrate]
IC50 [1, 6]: > 100 µM

CCCOC(=O)C1c2[nH]c3ccc(OC)cc3c2C2CCN1C2 (stereo not shown) [Example 90, propyl 7-methoxy-3,4,5,10-tetrahydro-1H-2,5-methanoazepino[3,4-b]indole-1-carboxylate hydrochloride]
IC50 ([1]; read-out: TNF Release Assay Avg. IC50, LPS-stimulated differentiated U937 cells, TNFα by ELISA, hydrochloride): 47.9 µM

COC(=O)C1c2[nH]c3ccc(OCc4ccccc4)cc3c2C2CCN1C2 (stereo not shown) [Example 91, methyl 7-(benzyloxy)-3,4,5,10-tetrahydro-1H-2,5-methanoazepino[3,4-b]indole-1-carboxylate compound with trifluoroacetic acid (1:1)]
IC50 [1, 4]: 24 µM

CCOC(=O)C1c2[nH]c3ccc(OC)cc3c2C2CCN1C2 (stereo not shown) [Example 92, ethyl 7-methoxy-3,4,5,10-tetrahydro-1H-2,5-methanoazepino[3,4-b]indole-1-carboxylate trifluoroacetate]
IC50 [1, 4]: 5.61 µM

CCCCCCOC(=O)C1c2[nH]c3ccc(OC)cc3c2C2CCN1C2 (stereo not shown) [Example 93, hydrochloride]
IC50 [1, 4]: 9.65 µM

O=C(O)C1NCCc2c1[nH]c1ccc(F)cc21 (stereo not drawn) [Example 94, 6-fluoro-2,3,4,9-tetrahydro-1H-beta-carboline-1-carboxylic acid trifluoroacetate]
IC50 [1, 6]: > 100 µM

COc1ccc2[nH]c3c(c2c1)C1CCN(C1)C3C(=O)OCC1CCCCC1 (stereo not shown) [Example 99, cyclohexylmethyl 7-methoxy-3,4,5,10-tetrahydro-1H-2,5-methanoazepino[3,4-b]indinole-1-carboxylate hydrochloride]
IC50 [1, 4]: 9.83 µM

COc1cccc2[nH]c3c(c12)CCNC3C(=O)O (stereo not drawn) [Example 103, 5-methoxy-2,3,4,9-tetrahydro-1H-beta-carboline-1-carboxylic acid hydrochloride]
IC50 [1, 6]: 92.6 µM

COc1ccc2[nH]c3c(c2c1)C1CCN(C1)C3C(=O)OC1CCCCC1 (stereo not shown) [Example 105, hydrochloride]
IC50 [1, 4]: > 100 µM

COC(=O)C1NCCc2c1[nH]c1ccc(OC)cc21 (stereo not drawn) [Example 106, methyl 6-methoxy-2,3,4,9-tetrahydro-1H-beta-carboline-1-carboxylate hydrochloride]
IC50 [1, 6]: 26.1 µM

COC(=O)C1c2[nH]c3ccc(OC)cc3c2CCN1C (stereo not drawn) [Example 149, methyl 6-methoxy-2-methyl-2,3,4,9-tetrahydro-1H-beta-carboline-1-carboxylate]
IC50 [1, 6]: 8.25 µM

COC(=O)C1c2[nH]c3ccc(O)cc3c2CCN1C (stereo not drawn) [Example 150, methyl 6-hydroxy-2-methyl-2,3,4,9-tetrahydro-1H-beta-carboline-1-carboxylate]
IC50 ([1]; read-out: TNF Release Assay Avg. IC50, LPS-stimulated differentiated U937 cells, TNFα by ELISA): 0.523 µM

COc1ccc2[nH]c3c(c2c1)C1CCN(C1)C3C(=O)OC1C(C)(C)CCCC1(C)C (stereo not shown) [Example 152, 2,2,6,6-tetramethylcyclohexyl 7-methoxy-3,4,5,10-tetrahydro-1H-2,5-methanoazepino[3,4-b]indole-1-carboxylate trifluoroacetate]
IC50 [1, 4]: 21.8 µM

COc1ccc2[nH]c3c(c2c1)C1CCN(C1)C3C(=O)NCc1ccccc1 (stereo not shown) [Example 243, N-benzyl-7-methoxy-3,4,5,10-tetrahydro-1H-2,5-methanoazepino[3,4-b]indole-1-carboxamide hydrochloride]
IC50 [1, 4]: > 100 µM
